In one data set the test system is pancreatic enzymes. As to the kind of experiment: Compatibility and biological activity of pancreatic enzymes in acidic UDCA compositions. The data set is classed as biochemical. The following applies: acidic form of UDCA. The text has this:
Pancreatic enzymes and salts of UDCA complement one another in the digestive system of a mammal. A dietary supplement containing both the enzymes and salts of UDCA would provide in a convenient pre-determined dose the remedy needed to treat the above-described diseased states. […] Lipase is especially affected by the low pH for the reasons that: […]

The conditions of data set [1]: cited from earlier work.

Take `C[C@H](CCC(=O)O)[C@H]1CC[C@H]2[C@@H]3[C@@H](O)C[C@@H]4C[C@H](O)CC[C@]4(C)[C@H]3CC[C@]12C` [UDCA, ursodeoxycholic acid]: the “compatibility with pancreatic enzymes” value with pancreatic enzymes was “incompatible with pancreatic enzymes”. Further, the “benefit at higher dosage” value in data set [1] (about 30 mg/kg of body weight, some patients) is recorded as “limited benefits”. Moreover, in data set [1] (human, in vivo), the “effect on liver function” value is listed as “augmenting liver function” and the undesirable side effects result is “severe diarrhea”. Further, the “effect on nutritional state” value in data set [1] (patients having cystic fibrosis, hepatobiliary complications) is reported as “improving the nutritional state”.

The values above are taken from patent publication US5750104A, “High buffer-containing enteric coating digestive enzyme bile acid compositions and method of treating digestive disorders therewith” (Digestive Care Inc., priority 1996, dated 1998).
